In article PMC10300102, “In vivo inhibition of nuclear ACE2 translocation protects against SARS-CoV-2 replication and lung damage through epigenetic imprinting” (Nature Communications, 2023):
Where a SMILES comes first, the peptide text is derived from it. The star is where a group is joined. Myristoyl = CCCCCCCCCCCCCC(=O)*

Columns and labels:
[1] = test system: SARS-CoV-2-induced lung pathology; set-up: species or system golden Syrian hamsters; details: hamster, in vivo
H3K27ac in CD14+ PBMCs = assay: H3K27ac nuclear fluorescence intensity and clock scan in CD14+ PBMCs; type: cell-based, human; details: CD14+ PBMCs of PB and PI patients
[2] = test system: importin-α ΔIBB protein / ACE2 FITC peptide (ACE2-IMPα complex); assay: Fluorescence polarization competition assay; type: binding; details: Fig. 1b, c: EMSA, microscale thermophoresis and fluorescence polarization
Method: Fluorescence polarization assays were performed using the CLARIOstar Plus plate reader (BMG Labtech, Ortenberg, Germany) with the fluorescein-Ahx-tagged ACE2 peptide sequence ^766[…]^779 manufactured by GeneScript Biotech (Piscataway, NJ), NACE2i peptide sequence MYR-[…]-OH manufactured by Mimitopes Pty Ltd (Melbourne, Australia), and recombinantly expressed importin-α ΔIBB protein. Each assay contained 50 nM ACE2 FITC, 10 μM importin-α ΔIBB protein, and two-fold serially-diluted NACE2i (starting concentration 400 μM) across 10 wells in a total volume of 200 μL. Fluorescence polarization readings were taken using 96-well black Fluotrac microplates (Greiner Bio-One, Kremsmünster, Austria). Assays were repeated in triplicate and contained a negative control (no inhibitor) and blank (no importin-α ΔIBB protein). Triplicate data were normalized and fitted to a single inhibition curve using GraphPad Prism (GraphPad Software, La Jolla, CA).

[3] = molecular target: T1, ACE2-IMPα interactions in H1299 cells (Homo sapiens, UniProt P52294); assay: Duolink proximity ligation assay; type: cell-based; details: 0.0015, 0.0977 and 6.25 µM
T1 construct: endogenous in cells; host or cells: NCI-H1299
Method: The Duolink proximity ligation assay was used with PLA probe anti-mouse PLUS (DUO92001), PLA probe anti-rabbit MINUS (DUO92005), and the Duolink In Situ Detection Reagent Red kit (DUO92008) (Sigma-Aldrich). Cells were fixed, permeabilized, and incubated with primary ACE2 antibodies targeting the NLS region and IMPα1 (staining conditions are shown in Supplementary Table 4). Cells were processed according to the manufacturer’s instructions. Finally, coverslips were mounted onto slides and examined as above. Image segmentation and analysis were carried out using QuPath open software (version 0.4.3) for bioimage analysis[64] with a custom script. An analysis workflow was developed with the following steps: (i) threshold-based cell detection using DAPI staining to create a mask for detected nuclei along with a 5 µm cell expansion setting to denote the cell cytoplasm boundary; and (ii) use of the QuPath subcellular detection module to detect the Duolink-positive spots in the Alexa Fluor 555 channel in each cell. The two functions were wrapped in a script to allow for batch analysis of images and data export. Total dots were counted per cell and then averaged for each cell and experimental group; approximately 100 cells were counted per group.

T1 sequence (P52294 whole entry): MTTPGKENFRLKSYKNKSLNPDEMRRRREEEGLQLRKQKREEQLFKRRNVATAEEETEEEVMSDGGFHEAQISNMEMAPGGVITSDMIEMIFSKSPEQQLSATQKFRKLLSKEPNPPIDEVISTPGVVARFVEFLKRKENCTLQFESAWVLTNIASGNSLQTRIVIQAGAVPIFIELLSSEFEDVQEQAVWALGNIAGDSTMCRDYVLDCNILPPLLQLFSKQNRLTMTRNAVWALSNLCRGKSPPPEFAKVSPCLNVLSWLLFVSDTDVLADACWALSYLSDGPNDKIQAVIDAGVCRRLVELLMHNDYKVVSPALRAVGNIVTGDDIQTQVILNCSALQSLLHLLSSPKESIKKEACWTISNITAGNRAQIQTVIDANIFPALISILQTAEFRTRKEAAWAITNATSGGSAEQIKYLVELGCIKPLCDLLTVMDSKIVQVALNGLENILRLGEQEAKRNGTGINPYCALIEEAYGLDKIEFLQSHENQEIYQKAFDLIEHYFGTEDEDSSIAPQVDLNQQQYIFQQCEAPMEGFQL

With CCCCCCCCCCCCCC(=O)N[C@H](C(=O)NCC(=O)N[C@H](C(=O)N[C@@H](CCCNC(=N)N)C(=O)N[C@@H](CC(=O)O)C(=O)N[C@@H](CCCNC(=N)N)C(=O)N[C@@H](CCCCN)C(=O)N[C@@H](CCCCN)C(=O)N[C@@H](CCCCN)C(=O)N[C@@H](CC(N)=O)C(=O)N[C@@H](CCCCN)C(=O)N[C@@H](C)C(=O)N[C@@H](CCCNC(=N)N)C(=O)N[C@@H](CO)C(=O)O)[C@@H](C)CC)[C@@H](C)O [NACE2i] (Myristoyl-TGIRDRKKKNKARS-OH) the lung histopathological changes [1] was “minimal alveolar, bronchiolar, or vascular changes”, the “mean cumulative histopathological scores versus vehicle” value [1] was “substantially lower” and the Bronchitis/bronchiolitis ([1]; ip) was 0. The Interstital inflammation ([1]; ip) was 0, the Vasculitis ([1]; ip) was 0 and the H3K7ac mark (H3K27ac in CD14+ PBMCs) was “successfully induced”. For the same compound, the “inhibition of the ACE2-IMPα complex in vitro” value [2] was “directly inhibiting the ACE2-IMPα complex” and the “ACE2-IMPα interactions (Duolink)” value [3] was “significantly inhibited ACE2-IMPα interactions in a dose-dependent manner”.
